The record followed here is patent publication US9198913B2, “Nitroimidazooxazines and their uses in anti-tubercular therapy” (priority 2009, dated 2015).

Values after ≈ are worked out from the molar mass of the structure shown.

The term Solubility denotes how much of the substance goes into solution per volume. The low end stands for little dissolved substance, the high end for much dissolved substance. For orientation: melting point means the temperature of the solid-liquid transition. One may read the solubility as the concentration that dissolves in the medium under given conditions. Lower therefore signals a poorly soluble substance. By Cmax is commonly meant the maximum level reached in the sampled fluid or tissue.

Series [1] can be described thus: Water solubility (sonicated suspension, HPLC).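 As to all read-outs here: concentration in the clear supernatant quantified by HPLC peak area against a DMSO standard solution of the same compound, corrected for dilution and injection volume.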 In kind it is physicochemical. The following applies: in water; for solubility at 15 min: thermodynamic from solid.
Series [2] can be described thus: Stability to human liver microsomes.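 Also: parent compound quantified by LC-MS/MS against an internal standard, duplicates averaged, expressed relative to the 0 min sample taken as 100%.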 To be noted: 1 μM, 37° C., 60 min, pooled human liver microsomes. In kind it is in vitro ADME. Background: Liver microsomes are vesicles of endoplasmic reticulum, rich in cytochrome P450 enzymes.
Series [3] in a line: Stability to mouse liver microsomes.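 Also: analyte quantified by LC-MS/MS as ratio to internal standard peak area, mean of duplicates, 60 min value expressed relative to the 0 min level (100%).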 In kind it is in vitro ADME. The following applies: 1 μM, 37° C., 60 min, CD-1 mouse liver microsomes.
In series [4] the test system is M. tuberculosis Erdman. In words: In vivo mouse acute TB infection assay. More on the design: species or system Mycobacterium tuberculosis. The following applies: BALB/c mice; for In vivo efficacy vs PA-824, Acute: oral 100 mg/kg daily 5 days a week for 3 weeks from day 11 post-infection, ratio of average lung CFU reduction to that with PA-824.
Series [5] in a line: In vivo pharmacokinetics in mice.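 As to all read-outs here: plasma and lung samples quantified by LC-MS/MS, dosing as a suspension in aqueous carboxymethylcellulose with Tween 80.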 To be noted: CD-1 mice, oral, 40 mg/kg; for Kp / half-life / Cmax: mouse; for Kp: lung/plasma, read-out: AUC ratio (lung/plasma); for half-life / Cmax: in vivo, plasma; for half-life: read-out: t½ (h) plasma (converted).
Series [6] has as its system M. tuberculosis Erdman. In words: In vivo mouse chronic TB infection assay. Also on record: species or system Mycobacterium tuberculosis. To be noted: mice, oral 100 mg/kg, treatment beginning ~70 days after infection.

For `O=[N+]([O-])c1cn2c(n1)OC[C@@H](OCC#Cc1ccc(-c3ccc(OC(F)(F)F)cc3)cc1)C2` [Compound 30, (6S)-2-Nitro-6-({3-[4′-(trifluoromethoxy)[1,1′-biphenyl]-4-yl]-2-propynyl}oxy)-6,7-dihydro-5H-imidazo[2,1-b][1,3]oxazine], the melting point was in the range of 192 to 194 °C. This compound had a Solubility in series [1] of 0.07 µg/mL (≈ 0.152 µM). Moreover, the “Microsomes (% remaining, 1 h) Human” value in series [2] worked out at 93%. In addition, in series [3], the “Microsomes (% remaining, 1 h) Mouse” value is listed as 85%. Moreover, the “In vivo efficacy vs PA-824, Acute” value with M. tuberculosis Erdman [4] is given as 89. In series [5], the AUC lung was determined as 13.6 µg·h/mL and the Kp came out at 1.4.
The compound `O=[N+]([O-])c1cn2c(n1)OC[C@@H](OCc1ccc(-c3ccc(OC(F)(F)F)cc3)cc1F)C2` [Compound 12, (6S)-6-{[3-Fluoro-4′-(trifluoromethoxy)[1,1′-biphenyl]-4-yl]methoxy}-2-nitro-6,7-dihydro-5H-imidazo[2,1-b][1,3]oxazine] returned a melting point of 160 to 162 °C. The compound further came in with a solubility at 15 min in series [1] of 1.4 µg/mL (≈ 3.09 µM). For the same compound, the “Microsomes (% remaining, 1 h) Human” value in series [2] came to 93%. In addition, the “Microsomes (% remaining, 1 h) Mouse” value in series [3] is given as 85%. Besides, in the series on M. tuberculosis Erdman [4], the “In vivo efficacy vs PA-824, Acute” value was 33. In addition, in series [5], the AUC lung came to 549 µg·h/mL, the half-life is 22 h and the Kp was determined as 2.7.
`O=[N+]([O-])c1cn2c(n1)OC[C@@H](OCc1ccc(-c3ccc(OC(F)(F)F)c(F)c3)cn1)C2` [Compound 22, (6S)-6-({5-[3-Fluoro-4-(trifluoromethoxy)phenyl]-2-pyridinyl}methoxy)-2-nitro-6,7-dihydro-5H-imidazo[2,1-b][1,3]oxazine] showed a melting point of 182 to 184 °C. Also, the Solubility in series [1] was found to be 30 µg/mL (≈ 66 µM). The “Microsomes (% remaining, 1 h) Human” value in series [2] was determined as 97%. Besides, the “Microsomes (% remaining, 1 h) Mouse” value in series [3] was 86%. Further, in series [5], the AUC lung turned out to be 155 µg·h/mL and the Kp was 1.1.
Compound `O=[N+]([O-])c1cn2c(n1)OC[C@@H](OCc1ccc(-c3ccc(OC(F)(F)F)cc3Cl)cc1)C2` [Compound 1, (6S)-6-{[2′-Chloro-4′-(trifluoromethoxy)[1,1′-biphenyl]-4-yl]methoxy}-2-nitro-6,7-dihydro-5H-imidazo[2,1-b][1,3]oxazine] registered a melting point of 80 to 82 °C. This compound also showed a solubility at 15 min in series [1] of 0.66 µg/mL (≈ 1.4 µM). In series [2], the “Microsomes (% remaining, 1 h) Human” value is given as 91%. Moreover, the “Microsomes (% remaining, 1 h) Mouse” value in series [3] worked out at 86%. Besides, in series [5], the AUC lung stood at 3363 µg·h/mL, the Cmax amounted to 6800 ng/mL, the half-life was 19.9 h and the Kp is 17.
`O=[N+]([O-])c1cn2c(n1)OC[C@@H](OCc1ccc(-c3ccc(C(F)(F)F)nc3)cc1F)C2` [Compound 23, (6S)-6-({2-Fluoro-4-[6-(trifluoromethyl)-3-pyridinyl]benzyl}oxy)-2-nitro-6,7-dihydro-5H-imidazo[2,1-b][1,3]oxazine] had a melting point of 195 to 198 °C. In series [1], the solubility at 15 min turned out to be 5.7 µg/mL (≈ 13 µM). For the same compound, in series [2], the “Microsomes (% remaining, 1 h) Human” value came to 96%. Further, the “Microsomes (% remaining, 1 h) Mouse” value in series [3] was found to be 78%. In series [5], the AUC lung stood at 55.4 µg·h/mL, the Cmax is 1560 ng/mL, the half-life is 4.9 h and the Kp is 2.5.
`O=C(O[C@@H]1COc2nc([N+](=O)[O-])cn2C1)N1CCN(c2ccc(OC(F)(F)F)cc2)CC1` [Compound 20, (6S)-2-Nitro-6,7-dihydro-5H-imidazo[2,1-b][1,3]oxazin-6-yl 4-[4-(trifluoromethoxy)phenyl]-1-piperazinecarboxylate] displayed a melting point of 166 to 168 °C. In series [1], this compound registered a solubility at 15 min of 17 µg/mL (≈ 37.2 µM). Also, in series [2], the “Microsomes (% remaining, 1 h) Human” value is 82%. Moreover, the “Microsomes (% remaining, 1 h) Mouse” value in series [3] was 85%. Besides, the AUC lung in series [5] amounted to 169 µg·h/mL.
Compound `O=[N+]([O-])c1cn2c(n1)OC[C@@H](OCc1cnc(-c3ccc(OC(F)(F)F)cc3)nc1)C2` [Compound 16, (6S)-2-Nitro-6-({2-[4-(trifluoromethoxy)phenyl]-5-pyrimidinyl}methoxy)-6,7-dihydro-5H-imidazo[2,1-b][1,3]oxazine] gave a melting point of 227 to 230 °C. This compound also had a Solubility in series [1] of 2.1 µg/mL (≈ 4.8 µM). The “Microsomes (% remaining, 1 h) Human” value in series [2] was 96%. Also, the “Microsomes (% remaining, 1 h) Mouse” value in series [3] was 87%. In series [5], the AUC lung is 131 µg·h/mL, the peak level (Cmax) was 1160 ng/mL and the half-life was 23.1 h.
Take `Cn1nc(-c2ccc(OC(F)(F)F)cc2)cc1CO[C@@H]1COc2nc([N+](=O)[O-])cn2C1` [Compound 11, (6S)-6-({1-Methyl-3-[4-(trifluoromethoxy)phenyl]-1H-pyrazol-5-yl}methoxy)-2-nitro-6,7-dihydro-5H-imidazo[2,1-b][1,3]oxazine]: in series [1], the concentration in solution (solubility at 15 min) was 5.3 µg/mL (≈ 12.1 µM). Besides, in series [2], the “Microsomes (% remaining, 1 h) Human” value was 86%. Further, the “Microsomes (% remaining, 1 h) Mouse” value in series [3] worked out at 81%. The “In vivo efficacy vs PA-824, Chronic” value in the series with M. tuberculosis Erdman [6] (ratio of average lung CFU reduction to that with PA-824) is listed as 0.9. For the same compound, in series [5], the AUC lung is 92.4 µg·h/mL, the peak level (Cmax) was 1660 ng/mL, the half-life was 6.6 h and the Kp worked out at 4.7.
Consider `O=[N+]([O-])c1cn2c(n1)OC[C@@H](OCc1ccc(-c3ccc(C(F)(F)F)cn3)cc1F)C2` [Compound 14, (6S)-6-({2-Fluoro-4-[5-(trifluoromethyl)-2-pyridinyl]benzyl}oxy)-2-nitro-6,7-dihydro-5H-imidazo[2,1-b][1,3]oxazine], for which the melting point fell in the range of 233 to 235 °C. In series [1], the concentration in solution (solubility at 15 min) came to 1.2 µg/mL (≈ 2.74 µM). For the same compound, the “Microsomes (% remaining, 1 h) Human” value in series [2] was found to be 90%. For the same compound, the “Microsomes (% remaining, 1 h) Mouse” value in series [3] is 77%. Also, in series [5], the AUC lung turned out to be 148 µg·h/mL, the Cmax was 440 ng/mL, the half-life is 13.9 h and the Kp was determined as 16.
`O=[N+]([O-])c1cn2c(n1)OC[C@@H](OCc1ccc(-c3ccc(OC(F)(F)F)cc3)nn1)C2` [Compound 24, (6S)-2-Nitro-6-({6-[4-(trifluoromethoxy)phenyl]-3-pyridazinyl}methoxy)-6,7-dihydro-5H-imidazo[2,1-b][1,3]oxazine]: the melting point is 194 °C (dec.). In series [1], the Solubility was 6.1 µg/mL (≈ 13.9 µM). The “Microsomes (% remaining, 1 h) Human” value in series [2] turned out to be 94%. Besides, the “Microsomes (% remaining, 1 h) Mouse” value in series [3] was 92%. In series [5], this compound yielded an AUC lung of 93.9 µg·h/mL and a Cmax of 3560 ng/mL.
With `O=[N+]([O-])c1cn2c(n1)OC[C@@H](OCc1ccc(OC(F)(F)F)cc1)C2` [PA-824, reference compound], the “Microsomes (% remaining, 1 h) Human” value in series [2] was 82%. In addition, the “log reductions in CFU (acute assay)” value in the series on M. tuberculosis Erdman [4] (oral 100 mg/kg, lungs, vs vehicle, 'up to') is reported as 2.5-3 log. Further, the “log reduction in CFU (chronic assay)” value in the series with M. tuberculosis Erdman [6] is roughly 2 log. Further, in series [5], the AUC lung amounted to 296 µg·h/mL, the concentration peaked (Cmax) at 5500 ng/mL, the half-life is 4.2 h and the Kp was determined as 3.8.
`O=[N+]([O-])c1cn2c(n1)OC[C@@H](OCc1ncc(-c3ccc(OC(F)(F)F)cc3)cn1)C2` [Compound 29, (6S)-2-Nitro-6-({5-[4-(trifluoromethoxy)phenyl]-2-pyrimidinyl}methoxy)-6,7-dihydro-5H-imidazo[2,1-b][1,3]oxazine] came in with a melting point of 223 to 226 °C. This compound came in with a Solubility in series [1] of 8.1 µg/mL (≈ 18.5 µM). The “Microsomes (% remaining, 1 h) Human” value in series [2] came out at 92%. Besides, the “Microsomes (% remaining, 1 h) Mouse” value in series [3] was 87%.
Consider `O=[N+]([O-])c1cn2c(n1)OC[C@@H](OCc1ccc(-c3ccc(C(F)(F)F)cn3)cc1)C2` [Compound 8, (6S)-2-Nitro-6-({4-[5-(trifluoromethyl)-2-pyridinyl]benzyl}oxy)-6,7-dihydro-5H-imidazo[2,1-b][1,3]oxazine], for which the melting point was 252 to 254 °C. Also, the Solubility in series [1] was 0.20 µg/mL (≈ 0.476 µM). The “Microsomes (% remaining, 1 h) Human” value in series [2] is on record as 93%. Besides, the “Microsomes (% remaining, 1 h) Mouse” value in series [3] came out at 90%. Also, in series [5], the AUC lung turned out to be 67.3 µg·h/mL and the Kp came out at 3.3.
`O=[N+]([O-])c1cn2c(n1)OC[C@@H](OCc1ccc(-c3ccc(OC(F)(F)F)c(Cl)c3)nc1)C2` [Compound 28, (6S)-6-({6-[3-Chloro-4-(trifluoromethoxy)phenyl]-3-pyridinyl}methoxy)-2-nitro-6,7-dihydro-5H-imidazo[2,1-b][1,3]oxazine] came in with a melting point of 169 to 171 °C. The Solubility in series [1] came to 0.18 µg/mL (≈ 0.382 µM). Besides, the “Microsomes (% remaining, 1 h) Human” value in series [2] is 87%. Besides, the “Microsomes (% remaining, 1 h) Mouse” value in series [3] worked out at 77%. In addition, in series [5], the AUC lung is 284 µg·h/mL, the peak level (Cmax) was 2890 ng/mL and the half-life is 21.7 h.
Turning to `O=[N+]([O-])c1cn2c(n1)OC[C@@H](OCc1ccc(-c3ccc(OC(F)(F)F)c(F)c3)cc1)C2` [Compound 2, (6S)-6-{[3′-Fluoro-4′-(trifluoromethoxy)[1,1′-biphenyl]-4-yl]methoxy}-2-nitro-6,7-dihydro-5H-imidazo[2,1-b][1,3]oxazine], the melting point was 169 to 171 °C. The solubility at 15 min in series [1] was found to be 0.1 µg/mL (≈ 0.221 µM). Also, the “Microsomes (% remaining, 1 h) Human” value in series [2] is listed as 93%. Also, the “Microsomes (% remaining, 1 h) Mouse” value in series [3] is 86%. Besides, in series [5], the AUC lung is greater than 513 µg·h/mL, the maximum concentration (Cmax) was 17100 ng/mL and the half-life is 20.5 h.
